Values of other authors, collected in patent US20230181675A1, “NOVEL FORMUATIONS” (ARECOR LIMITED, priority 2020, published 2023).

Settings: at 25° C.

SMILES: O=C(O)CN(CCN(CC(=O)O)CC(=O)O)CC(=O)O [EDTA, ethylenediaminetetraacetate]
- logK metal binding stability constant with respect to zinc ion binding: 14.5

SMILES: O=C(O)CC(O)(CC(=O)O)C(=O)O [Citrate]
- logK metal binding stability constant with respect to zinc ion binding: 4.93

SMILES: O=C(O)CN(CCOCCOCCN(CC(=O)O)CC(=O)O)CC(=O)O [EGTA, ethyleneglycoltetraacetate]
- logK metal binding stability constant with respect to zinc ion binding: 12.6
